AC50 data for 16 molecules are collected here from ChEMBL document CHEMBL5291721, “A preclinical secondary pharmacology resource illuminates target-adverse drug reaction associations of marketed drugs” (Nat Commun, 2023).

For assay [1], the target named is Beta-1 adrenergic receptor (Homo sapiens, UniProt P08588). Format: functional.
The target in assay [2] is T1, Gastrin/cholecystokinin type B receptor (Homo sapiens, UniProt P32239).
T1 sequence (P32239 whole entry): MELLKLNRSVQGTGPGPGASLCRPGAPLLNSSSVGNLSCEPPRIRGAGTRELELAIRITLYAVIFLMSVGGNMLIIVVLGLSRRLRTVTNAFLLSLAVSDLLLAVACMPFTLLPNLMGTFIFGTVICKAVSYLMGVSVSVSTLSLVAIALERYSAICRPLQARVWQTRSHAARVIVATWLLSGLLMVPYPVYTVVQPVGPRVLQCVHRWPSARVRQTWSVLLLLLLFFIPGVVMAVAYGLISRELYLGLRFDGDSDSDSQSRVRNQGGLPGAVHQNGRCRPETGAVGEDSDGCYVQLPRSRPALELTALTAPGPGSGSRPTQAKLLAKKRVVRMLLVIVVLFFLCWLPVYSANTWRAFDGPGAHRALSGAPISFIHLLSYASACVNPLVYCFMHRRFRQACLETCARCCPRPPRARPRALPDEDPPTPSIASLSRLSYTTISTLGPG

Assay [3] concerns the target T2, Muscarinic acetylcholine receptor M2 (Homo sapiens, UniProt P08172).
T2 sequence (P08172 whole entry): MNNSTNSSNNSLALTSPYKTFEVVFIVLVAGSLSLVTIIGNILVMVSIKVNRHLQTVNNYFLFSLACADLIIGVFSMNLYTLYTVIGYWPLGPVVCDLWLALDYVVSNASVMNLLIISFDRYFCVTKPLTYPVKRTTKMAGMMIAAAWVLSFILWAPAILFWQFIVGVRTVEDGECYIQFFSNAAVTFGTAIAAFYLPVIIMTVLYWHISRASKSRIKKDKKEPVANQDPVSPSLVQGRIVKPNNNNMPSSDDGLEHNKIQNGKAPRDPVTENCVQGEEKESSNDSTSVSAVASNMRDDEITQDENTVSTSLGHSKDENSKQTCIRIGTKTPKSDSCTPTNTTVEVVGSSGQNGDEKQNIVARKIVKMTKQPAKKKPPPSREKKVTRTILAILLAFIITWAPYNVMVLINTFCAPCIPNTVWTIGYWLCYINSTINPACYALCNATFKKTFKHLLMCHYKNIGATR
Format: functional, cell-based.

The next assay addresses D(1A) dopamine receptor (Homo sapiens, UniProt P21728). Format: functional, cell-based.
In the next assay the target is T3, Estrogen receptor (Homo sapiens, UniProt P03372).
T3 sequence (P03372 whole entry): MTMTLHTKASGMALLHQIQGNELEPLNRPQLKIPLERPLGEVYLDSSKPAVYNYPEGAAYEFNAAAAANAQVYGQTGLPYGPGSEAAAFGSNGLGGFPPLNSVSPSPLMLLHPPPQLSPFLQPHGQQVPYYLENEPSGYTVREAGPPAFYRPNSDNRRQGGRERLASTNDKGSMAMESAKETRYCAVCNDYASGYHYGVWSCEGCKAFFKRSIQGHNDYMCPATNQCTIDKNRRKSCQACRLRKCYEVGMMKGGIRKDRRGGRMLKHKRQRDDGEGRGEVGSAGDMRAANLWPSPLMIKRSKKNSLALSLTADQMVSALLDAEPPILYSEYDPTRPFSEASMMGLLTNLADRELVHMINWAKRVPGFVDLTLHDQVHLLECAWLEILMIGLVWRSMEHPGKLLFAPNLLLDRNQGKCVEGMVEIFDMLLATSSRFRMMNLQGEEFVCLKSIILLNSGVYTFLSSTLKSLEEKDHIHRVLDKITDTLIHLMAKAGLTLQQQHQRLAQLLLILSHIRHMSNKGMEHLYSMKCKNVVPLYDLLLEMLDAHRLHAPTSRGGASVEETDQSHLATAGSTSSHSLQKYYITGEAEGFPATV

Assay [4] concerns the target Growth hormone secretagogue receptor type 1 (Homo sapiens, UniProt Q92847).
Assay [5] addresses 5-hydroxytryptamine receptor 2B (Homo sapiens, UniProt P41595). Format: functional, cell-based.
Assay [6] concerns the target Voltage-gated inwardly rectifying potassium channel KCNH2 (Homo sapiens, UniProt Q12809). It is filed as functional.
Assay [7] addresses 3',5'-cyclic-AMP phosphodiesterase 4D (Homo sapiens, UniProt Q08499). Format: functional.
In assay [8] the target is Sodium-dependent dopamine transporter (Homo sapiens, UniProt Q01959).
Sequence of Sodium-dependent dopamine transporter (Q01959 whole entry): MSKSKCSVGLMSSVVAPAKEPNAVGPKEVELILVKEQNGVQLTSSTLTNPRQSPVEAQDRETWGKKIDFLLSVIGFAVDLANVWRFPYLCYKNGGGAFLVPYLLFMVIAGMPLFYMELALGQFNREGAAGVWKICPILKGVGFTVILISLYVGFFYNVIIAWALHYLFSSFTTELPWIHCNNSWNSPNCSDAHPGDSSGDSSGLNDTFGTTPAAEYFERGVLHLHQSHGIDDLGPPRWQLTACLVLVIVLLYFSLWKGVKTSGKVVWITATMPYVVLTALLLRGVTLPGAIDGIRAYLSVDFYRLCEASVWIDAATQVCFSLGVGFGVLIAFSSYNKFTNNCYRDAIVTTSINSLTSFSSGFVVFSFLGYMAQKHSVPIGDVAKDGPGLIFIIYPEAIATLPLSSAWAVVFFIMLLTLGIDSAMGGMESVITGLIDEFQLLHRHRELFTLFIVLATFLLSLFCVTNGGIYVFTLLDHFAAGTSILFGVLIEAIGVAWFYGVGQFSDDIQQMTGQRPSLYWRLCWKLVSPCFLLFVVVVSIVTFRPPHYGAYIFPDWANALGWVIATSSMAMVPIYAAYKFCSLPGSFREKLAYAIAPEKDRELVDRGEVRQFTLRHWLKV
The target in another assay is T4, Glucocorticoid receptor (Homo sapiens, UniProt P04150).
T4 sequence (P04150 whole entry): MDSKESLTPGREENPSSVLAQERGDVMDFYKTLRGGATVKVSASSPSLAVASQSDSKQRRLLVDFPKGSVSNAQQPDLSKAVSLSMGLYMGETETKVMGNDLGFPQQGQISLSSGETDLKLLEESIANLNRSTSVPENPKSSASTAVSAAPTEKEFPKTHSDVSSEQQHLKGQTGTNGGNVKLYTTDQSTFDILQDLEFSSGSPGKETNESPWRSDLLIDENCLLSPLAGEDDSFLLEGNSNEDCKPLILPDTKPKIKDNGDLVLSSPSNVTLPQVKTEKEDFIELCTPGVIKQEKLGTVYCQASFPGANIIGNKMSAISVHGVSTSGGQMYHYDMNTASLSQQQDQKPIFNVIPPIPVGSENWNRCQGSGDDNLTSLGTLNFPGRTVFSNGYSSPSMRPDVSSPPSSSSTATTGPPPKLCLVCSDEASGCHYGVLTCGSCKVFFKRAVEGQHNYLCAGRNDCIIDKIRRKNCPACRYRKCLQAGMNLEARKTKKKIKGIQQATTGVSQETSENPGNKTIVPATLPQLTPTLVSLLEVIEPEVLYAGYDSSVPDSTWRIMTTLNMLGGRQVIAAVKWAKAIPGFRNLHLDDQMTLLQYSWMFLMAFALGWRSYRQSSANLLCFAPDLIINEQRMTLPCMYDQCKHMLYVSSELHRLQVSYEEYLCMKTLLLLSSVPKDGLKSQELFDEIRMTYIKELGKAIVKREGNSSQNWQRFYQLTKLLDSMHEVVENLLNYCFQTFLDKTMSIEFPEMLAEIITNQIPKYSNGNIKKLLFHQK
Further: assay procedure not described here.

Sequence of 3',5'-cyclic-AMP phosphodiesterase 4D (Q08499 whole entry): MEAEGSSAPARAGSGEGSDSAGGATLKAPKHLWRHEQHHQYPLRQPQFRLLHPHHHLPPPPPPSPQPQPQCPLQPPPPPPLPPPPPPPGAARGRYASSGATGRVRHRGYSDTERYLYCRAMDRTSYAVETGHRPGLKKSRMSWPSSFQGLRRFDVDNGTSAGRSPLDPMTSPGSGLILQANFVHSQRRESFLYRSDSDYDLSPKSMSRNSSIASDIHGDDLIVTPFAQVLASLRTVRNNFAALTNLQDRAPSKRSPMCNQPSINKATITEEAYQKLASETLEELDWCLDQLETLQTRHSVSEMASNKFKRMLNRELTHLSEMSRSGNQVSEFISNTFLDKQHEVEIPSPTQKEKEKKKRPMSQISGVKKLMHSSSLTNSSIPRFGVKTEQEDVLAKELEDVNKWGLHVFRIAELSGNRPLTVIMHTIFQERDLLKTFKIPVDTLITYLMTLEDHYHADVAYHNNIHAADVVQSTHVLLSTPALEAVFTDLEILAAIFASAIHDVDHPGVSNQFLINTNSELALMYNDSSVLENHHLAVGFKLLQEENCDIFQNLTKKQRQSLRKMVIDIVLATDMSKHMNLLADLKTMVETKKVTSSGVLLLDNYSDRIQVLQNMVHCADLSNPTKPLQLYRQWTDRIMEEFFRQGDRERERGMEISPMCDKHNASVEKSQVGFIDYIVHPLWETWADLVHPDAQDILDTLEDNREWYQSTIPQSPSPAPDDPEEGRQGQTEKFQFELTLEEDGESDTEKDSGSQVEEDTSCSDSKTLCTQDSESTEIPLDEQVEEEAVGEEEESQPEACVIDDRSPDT
Sequence of 5-hydroxytryptamine receptor 2B (P41595 whole entry): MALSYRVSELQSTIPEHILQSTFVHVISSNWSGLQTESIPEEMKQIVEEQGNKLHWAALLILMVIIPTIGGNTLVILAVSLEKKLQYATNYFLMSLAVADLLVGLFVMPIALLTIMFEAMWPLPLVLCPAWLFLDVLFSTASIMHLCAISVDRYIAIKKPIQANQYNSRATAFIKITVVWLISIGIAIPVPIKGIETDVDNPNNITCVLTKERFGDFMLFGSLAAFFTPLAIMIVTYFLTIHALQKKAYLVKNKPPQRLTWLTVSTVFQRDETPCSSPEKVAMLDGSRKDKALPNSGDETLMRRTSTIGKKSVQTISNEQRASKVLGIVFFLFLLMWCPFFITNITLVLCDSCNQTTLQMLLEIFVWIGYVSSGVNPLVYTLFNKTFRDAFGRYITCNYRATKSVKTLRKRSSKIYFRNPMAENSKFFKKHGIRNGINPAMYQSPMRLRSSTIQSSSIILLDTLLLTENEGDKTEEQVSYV
Sequence of D(1A) dopamine receptor (P21728 whole entry): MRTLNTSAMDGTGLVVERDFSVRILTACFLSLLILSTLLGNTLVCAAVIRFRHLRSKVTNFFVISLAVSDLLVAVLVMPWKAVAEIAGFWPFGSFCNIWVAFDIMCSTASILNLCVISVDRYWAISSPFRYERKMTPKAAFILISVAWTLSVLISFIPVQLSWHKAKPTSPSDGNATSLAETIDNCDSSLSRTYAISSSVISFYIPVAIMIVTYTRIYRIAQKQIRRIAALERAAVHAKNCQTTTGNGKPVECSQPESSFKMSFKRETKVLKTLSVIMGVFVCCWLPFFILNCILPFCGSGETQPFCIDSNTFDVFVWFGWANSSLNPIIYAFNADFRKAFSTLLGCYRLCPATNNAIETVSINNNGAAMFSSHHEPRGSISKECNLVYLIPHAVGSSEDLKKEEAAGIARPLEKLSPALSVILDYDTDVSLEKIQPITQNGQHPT
Sequence of Beta-1 adrenergic receptor (P08588 whole entry): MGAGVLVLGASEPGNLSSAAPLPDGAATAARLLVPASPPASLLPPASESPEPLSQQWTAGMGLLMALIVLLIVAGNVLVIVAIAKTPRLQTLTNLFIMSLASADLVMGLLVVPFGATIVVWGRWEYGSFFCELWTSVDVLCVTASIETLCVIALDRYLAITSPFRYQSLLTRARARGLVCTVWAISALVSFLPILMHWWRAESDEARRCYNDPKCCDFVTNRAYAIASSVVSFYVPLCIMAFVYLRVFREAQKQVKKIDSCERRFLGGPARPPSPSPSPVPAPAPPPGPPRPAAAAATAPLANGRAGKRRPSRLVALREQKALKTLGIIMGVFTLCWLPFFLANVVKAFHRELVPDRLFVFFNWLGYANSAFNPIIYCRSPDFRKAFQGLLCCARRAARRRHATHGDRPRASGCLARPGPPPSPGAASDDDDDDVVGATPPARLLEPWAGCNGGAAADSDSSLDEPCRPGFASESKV
Sequence of Voltage-gated inwardly rectifying potassium channel KCNH2 (Q12809 whole entry): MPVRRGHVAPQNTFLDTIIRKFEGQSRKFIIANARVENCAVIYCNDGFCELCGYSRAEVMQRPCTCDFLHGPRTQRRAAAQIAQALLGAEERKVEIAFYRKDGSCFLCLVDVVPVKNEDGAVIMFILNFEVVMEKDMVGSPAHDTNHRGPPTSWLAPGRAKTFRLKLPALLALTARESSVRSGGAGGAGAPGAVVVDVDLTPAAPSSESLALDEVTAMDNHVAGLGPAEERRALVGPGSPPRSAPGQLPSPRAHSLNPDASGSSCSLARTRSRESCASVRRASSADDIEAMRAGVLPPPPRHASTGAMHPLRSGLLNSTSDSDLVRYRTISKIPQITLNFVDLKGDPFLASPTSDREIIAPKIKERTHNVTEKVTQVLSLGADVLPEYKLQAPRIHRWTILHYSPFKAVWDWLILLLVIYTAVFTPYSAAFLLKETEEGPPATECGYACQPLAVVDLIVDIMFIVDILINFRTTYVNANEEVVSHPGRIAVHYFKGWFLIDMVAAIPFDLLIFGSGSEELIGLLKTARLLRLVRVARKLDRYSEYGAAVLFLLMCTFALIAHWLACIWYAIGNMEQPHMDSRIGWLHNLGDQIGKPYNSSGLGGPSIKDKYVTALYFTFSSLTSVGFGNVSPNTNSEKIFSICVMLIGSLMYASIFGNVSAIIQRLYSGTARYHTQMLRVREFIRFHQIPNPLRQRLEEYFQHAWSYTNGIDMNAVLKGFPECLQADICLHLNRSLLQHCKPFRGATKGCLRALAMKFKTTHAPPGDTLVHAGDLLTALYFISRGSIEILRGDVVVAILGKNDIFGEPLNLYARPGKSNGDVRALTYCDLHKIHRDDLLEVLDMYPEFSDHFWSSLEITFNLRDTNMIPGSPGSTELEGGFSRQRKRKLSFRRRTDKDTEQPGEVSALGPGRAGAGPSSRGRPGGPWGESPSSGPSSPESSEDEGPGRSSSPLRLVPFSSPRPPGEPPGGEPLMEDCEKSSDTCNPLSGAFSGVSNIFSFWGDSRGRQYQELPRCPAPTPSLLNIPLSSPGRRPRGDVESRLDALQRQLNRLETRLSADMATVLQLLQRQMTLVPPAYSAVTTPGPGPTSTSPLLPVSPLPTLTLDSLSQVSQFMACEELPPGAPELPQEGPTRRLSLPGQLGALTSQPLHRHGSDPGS
Sequence of Growth hormone secretagogue receptor type 1 (Q92847 whole entry): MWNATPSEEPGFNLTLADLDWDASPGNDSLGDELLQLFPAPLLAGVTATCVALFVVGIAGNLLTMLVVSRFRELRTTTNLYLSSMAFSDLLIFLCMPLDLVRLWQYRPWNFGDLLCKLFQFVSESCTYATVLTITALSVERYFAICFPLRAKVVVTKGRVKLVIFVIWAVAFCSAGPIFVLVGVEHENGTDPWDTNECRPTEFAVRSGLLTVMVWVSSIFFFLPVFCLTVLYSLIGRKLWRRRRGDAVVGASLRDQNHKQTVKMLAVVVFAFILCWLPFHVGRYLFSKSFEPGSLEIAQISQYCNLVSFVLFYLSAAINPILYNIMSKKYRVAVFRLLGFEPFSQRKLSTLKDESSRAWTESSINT

`CC(=O)SC[C@@H](C)C(=O)N1CCC[C@H]1C(=O)N[C@@H](Cc1ccccc1)C(=O)O`: the half-maximal activity concentration (AC50) (in [1]; in [2]; in assay [3]; at D(1A) dopamine receptor; at Estrogen receptor; in assay [4]) was > 30 µM in each case. In addition, the half-maximal activity concentration (AC50) in assay [5], in [6], in assay [7] and in assay [8] was > 30 µM in each case.

For `NC(=O)CN1CCCC1=O`, the AC50 (in assay [1]; in [2]; in [3]; on D(1A) dopamine receptor; in assay [4]; in [5]) was > 30 µM in each case. Further, the AC50 (in [6]; at Glucocorticoid receptor; in [7]; in [8]) was > 30 µM each time.

Turning to `Nc1c2ccccc2nc2ccccc12` [AMINACRINE], the AC50 (usually the midpoint of the concentration-response curve, whichever way the signal moves) in assay [6] was 12 µM.

Turning to `O=C1CN=C(c2ccccn2)c2cc(Br)ccc2N1` [BROMAZEPAM], the AC50 (in assay [1]; in assay [3]; on D(1A) dopamine receptor; on Estrogen receptor; in assay [4]; in [5]) was > 10 µM throughout. Also, the AC50 is > 30 µM in assay [6], > 10 µM on Glucocorticoid receptor, > 30 µM in assay [7] and > 10 µM in assay [8].

As to `CC(=O)[C@@]1(O)CC[C@H]2[C@@H]3C=C(Cl)C4=CC(=O)[C@@H]5C[C@@H]5[C@]4(C)[C@H]3CC[C@@]21C` [CYPROTERONE], the AC50 is > 10 µM in [1]; > 10 µM in [3]; 2.07 µM at D(1A) dopamine receptor; > 30 µM on Estrogen receptor; > 10 µM in assay [4]; > 10 µM in [5]. For the same molecule, the AC50 in [6] was > 30 µM; in assay [7], > 10 µM; in assay [8], > 10 µM.

For `COc1cc2ncnc(Nc3ccc(F)c(Cl)c3)c2cc1NC(=O)/C=C/CN1CCCCC1` [DACOMITINIB ANHYDROUS], the AC50 is > 30 µM in assay [1], > 10 µM in [3], 25 µM in assay [7] and 15 µM in assay [8].

As to `CC(=O)OCC(=O)[C@@]1(O)[C@H](C)C[C@H]2[C@@H]3CCC4=CC(=O)C=C[C@]4(C)[C@@]3(F)[C@@H](O)C[C@@]21C` [DEXAMETHASONE ACETATE], the AC50 is > 10 µM in assay [1]; > 30 µM in [2]; > 10 µM in assay [3]; > 10 µM at D(1A) dopamine receptor; > 30 µM in assay [4]; > 10 µM in assay [5]. For the same molecule, the AC50 in assay [6], in assay [7] and in assay [8] was > 30 µM in each case.

With `CCCCCCCCCCCCCCCCCCCCCC(=O)Nc1ccn([C@@H]2O[C@H](CO)[C@@H](O)[C@@H]2O)c(=O)n1` [ENOCITABINE], the AC50 (in assay [1]; in assay [2]; in assay [3]; on D(1A) dopamine receptor; in [4]; in assay [5]) was > 30 µM in each case. Also, the AC50 (in assay [6]; on Glucocorticoid receptor; in [7]; in assay [8]) was > 30 µM throughout.

For the molecule `CC(=O)[C@]1(O)Cc2c(O)c3c(c(O)c2[C@@H](O[C@H]2C[C@H](N)[C@H](O)[C@H](C)O2)C1)C(=O)c1ccccc1C3=O` [IDARUBICIN], the AC50 in assay [1] was > 30 µM; in [2], > 30 µM; on D(1A) dopamine receptor, > 30 µM; in [4], 7.7 µM; in [6], 20.7 µM; on Glucocorticoid receptor, 0.11 µM. Moreover, the values for the AC50 in assay [7] and in [8] were > 30 µM and 15 µM, respectively.

In the case of `O=C(O)CCCCC1CCSS1` (stereo not drawn) [LIPOIC ACID, ALPHA], the AC50 in [6] was > 30 µM.

On to `CCOC(=O)O[C@]1(C(=O)OCCl)CC[C@H]2[C@@H]3CCC4=CC(=O)C=C[C@]4(C)[C@H]3[C@@H](O)C[C@@]21C` [LOTEPREDNOL ETABONATE], for which the AC50 (in assay [1]; in [2]; in [3]; on D(1A) dopamine receptor; in assay [4]; in assay [5]) was > 30 µM each time. Further, the AC50 was > 30 µM in [6], 0.0056 µM at Glucocorticoid receptor, > 30 µM in assay [7] and > 30 µM in [8].

Regarding `COc1cc2c(cc1OC)C(CCc1ccc(Cl)cc1)N(C)CC2` (configuration not stated) [METHOPHOLINE], the AC50 in assay [1] is > 30 µM; in assay [3], > 10 µM; on D(1A) dopamine receptor, > 10 µM; at Estrogen receptor it was > 30 µM; in assay [4] it was > 30 µM; in [5], > 10 µM. The AC50 is > 30 µM on Glucocorticoid receptor, > 30 µM in assay [7] and 28.7 µM in [8].

As to `COc1ccc(-c2noc(CC(=O)O)c2-c2ccc(OC)cc2)cc1` [MOFEZOLAC], the AC50 in assay [1] is > 30 µM; in [2], > 10 µM; in assay [3], > 30 µM; at D(1A) dopamine receptor it was > 30 µM; in assay [4], > 30 µM; in assay [5], > 30 µM. Further, the half-maximal activity concentration (AC50) (in assay [6]; at Glucocorticoid receptor; in assay [7]; in assay [8]) was > 30 µM in each case.

Regarding `CN(C(=O)c1c(O)c2ccccc2n(C)c1=O)c1ccccc1` [ROQUINIMEX], the AC50 in assay [1], in assay [7] and in assay [8] was > 30 µM throughout.

For the molecule `Cn1cnc2c(F)c(Nc3ccc(Br)cc3Cl)c(C(=O)NOCCO)cc21` [SELUMETINIB], the AC50 in assay [6], in assay [7] and in assay [8] was > 30 µM each time.

`CCC(COC(=O)c1cc(OC)c(OC)c(OC)c1)(c1ccccc1)N(C)C` (configuration not stated) [TRIMEBUTINE]: the AC50 in [1] was > 30 µM; in assay [2] it was > 30 µM; in [3], 1.2 µM; on D(1A) dopamine receptor, > 30 µM; in assay [4], > 30 µM; in assay [5] it was > 30 µM. In addition, the AC50 in assay [6] was 1.7 µM; at Glucocorticoid receptor it was > 30 µM; in assay [7] it was 26 µM; in [8] it was 27 µM.
